How the values were obtained:
[1] = target: T1, PDK1 activation of SGK1 [Ser422Asp] (Homo sapiens, UniProt O15530); assay: SGK1 activation by PDK1 in vitro; type: biochemical; details: compound 60 μM
T1 construct: GST (N); made in house; host or cells: HEK293
Procedure: FIG. 4—Small compounds designed to bind the HM/PIF-pocket of PDK1 can block the PDK1-dependent phosphorylation and activation of substrates that require docking to the HM/PIF-pocket of PDK1. (A) Effect of compound 1 (100 and 200 μM) on PDK1 phosphorylation of its substrate S6K1. The phosphorylation reaction was performed in vitro with [γ^32P]ATP and then separated on SDS-PAGE followed by exposure to phosphorimager. The radioactive band corresponding to phosphorylated GST-56K1-T2[Thr412Glu] (S6K[412E]) is indicated. (B) PDK1 or PDK1[Val127Leu] (PDK1[V127L]) were pre-incubated with GST-[…]N-SGK1 [Ser422Asp] […] (C) The activity of S6K was measured in vitro after glutathione sepharose purification; aliquots of purified proteins were separated on SDS-PAGE and the level of activation loop phosphorylation was visualized by immunoblotting using phospho-specific antibodies that recognize the phosphorylated activation loop, followed by stripping of the membranes and re-probing with anti-GST to verify the presence of equal amounts of protein. (D) Cells overexpressing GST-56K1-T2[Thr412Glu] were treated as in (C) but S6K activity was measured in vitro after immunoprecipitation of the GST-fusion protein with anti-GST antibodies; the level of S6K expression was analysed by western-blotting of crude extracts. […]

[2] = target: T2, Thr221-phosphorylated S6K11-364 (Rattus norvegicus, UniProt P67999); assay: S6K1 in vitro reconstitution kinase assay with tail peptides; type: biochemical
T2 construct: Purified HA-S6K1-364 was incubated with synthetic S6K1 (rat) tail peptides; made in house; host or cells: COS7, co-transfected with myc-PDK1; anti-HA immunoprecipitate
T2 sequence (P67999 24-387): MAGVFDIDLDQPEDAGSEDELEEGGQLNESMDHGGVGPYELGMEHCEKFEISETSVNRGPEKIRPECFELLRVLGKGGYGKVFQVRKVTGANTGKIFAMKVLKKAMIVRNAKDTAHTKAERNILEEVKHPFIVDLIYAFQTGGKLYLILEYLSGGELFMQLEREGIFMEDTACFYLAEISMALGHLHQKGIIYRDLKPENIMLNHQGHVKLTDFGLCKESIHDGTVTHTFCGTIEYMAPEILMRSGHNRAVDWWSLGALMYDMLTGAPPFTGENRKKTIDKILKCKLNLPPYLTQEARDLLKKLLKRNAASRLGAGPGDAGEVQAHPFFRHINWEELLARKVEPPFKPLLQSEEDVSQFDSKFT
Excerpt: We established an in vitro reconstitution assay that could test a direct activation of the AGC kinase domain by the tail phosphate and characterize its cooperation with the HM and activation loop phosphates. The deletion mutant S6K11-364, which contains the kinase domain, but lacks the region of the tail containing the tail site and the HM as well as the C-terminal autoinhibitory domain, was expressed and purified from COS7 cells, either non-phosphorylated or phosphorylated at T221 in the activation loop, achieved by co-expression with PDK1. Purified S6K11-364 was then incubated with synthetic peptides of the S6K1 tail (residues 366-395: QTPVDS^371PDDSTLSESANQVFLGFT^389YVAPSV), which were either non-phosphorylated (S371/T389), phosphorylated at the tail site (pS371/T389), phosphorylated in the HM (S371/pT389) or phosphorylated at both sites (pS371/pT389). Subsequently, the kinase activity of S6K11-364 was determined.
Kinase assays for PKB, RSK, S6K, MSK were done as described previously (Frodin et al., 2002). […] After washing with 150 mM orthophosphoric acid, [^32P]phosphate incorporated into peptide substrate was quantified in an FLA-3000 apparatus (Fujifilm). […]

T1 sequence (O15530 whole entry, change not shown): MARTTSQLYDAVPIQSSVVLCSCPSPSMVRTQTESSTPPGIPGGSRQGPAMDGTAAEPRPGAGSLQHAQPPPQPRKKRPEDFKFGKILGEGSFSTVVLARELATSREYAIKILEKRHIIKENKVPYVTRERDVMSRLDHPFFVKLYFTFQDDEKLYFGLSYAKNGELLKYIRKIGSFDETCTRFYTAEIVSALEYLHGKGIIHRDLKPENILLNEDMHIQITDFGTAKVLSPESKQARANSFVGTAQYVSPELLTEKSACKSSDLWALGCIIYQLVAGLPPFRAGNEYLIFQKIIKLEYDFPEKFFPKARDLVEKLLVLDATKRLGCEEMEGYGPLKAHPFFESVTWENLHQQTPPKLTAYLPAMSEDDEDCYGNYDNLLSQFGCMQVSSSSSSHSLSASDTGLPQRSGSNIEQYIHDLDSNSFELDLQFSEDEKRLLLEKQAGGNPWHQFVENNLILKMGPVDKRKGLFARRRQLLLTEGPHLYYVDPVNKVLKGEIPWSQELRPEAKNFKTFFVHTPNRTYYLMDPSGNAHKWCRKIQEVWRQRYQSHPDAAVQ

## O=C(O)CSC(CC(=O)c1ccc(Cl)cc1)c1ccccc1 (centres unmarked) [Compound 1]
[1]
  SGK1 activation by PDK1 (in words): inhibited

## S371/T389: synthetic S6K1 tail peptide (residues 366-395), non-phosphorylated
[2]
  stimulation of kinase activity (in words): did not stimulate

Source: patent US20110152166A1, “METHOD OF MODULATION OF PROTEIN PHOSPHORYLATION-DEPENDENT CONFORMATIONAL TRANSITIONS WITH LOW MOLECULAR WEIGHT COMPOUNDS” (priority 2006, published 2011)
